Assay results reported in the NIST ThermoML archive (doi:10.1016/j.fluid.2008.06.012).
Numbers after ± are expanded uncertainties.

Legend:
[1] = 298.15 K, 101.33 kPa, Liquid
[2] = refractive index (Na D-line) (dimensionless); details: 298.15 K; 101.33 kPa; Liquid; Standard Abbe refractometry

mass density [1]	refractive index [2]	mass density ([1]; Vibrating tube method)	Compound
679.47 ± 0.66 kg/m3	1.38517 ± 0.00068		CCCCCCC [heptane]
655.06 ± 1.1 kg/m3	1.37287 ± 0.0007		CCCCCC [hexane]
771.15 ± 0.85 kg/m3	1.43232 ± 0.0007		CCCCCCCCCCCCCCCC [hexadecane]
1058.59 ± 0.28 kg/m3	1.5253 ± 0.00068		c1ccsc1 [thiophene]

The remaining lines, values behind:

Compound	mass density [1]	refractive index [2]	mass density ([1]; Vibrating tube method)
CCOS(=O)(=O)[O-].CCn1cc[n+](C)c1 [1-ethyl-3-methylimidazolium ethyl sulfate]		1.47903 ± 0.0012	1238.17 ± 8.3 kg/m3
CCCCCCCCCCCC [dodecane]	745.32 ± 0.91 kg/m3	1.42011 ± 0.0007	
